Tests used:
[1] = tested on: Aspergillus Niger; test: Activity against Aspergillus Niger; type: cell-based
From the text: Cyclosporin C may be isolated by chromatography as a compound active against Aspergillus Niger and having greater polarity than Cyclosporins A and B (designated S7481/F-1 and S7481/F-2 in the above mentioned D.O.S.).

[2] = Solubility at room temperature; type: physicochemical
[3] = tested on: hemolytic plaque-forming cells; test: Jerne test (local hemolysis in gel); type: in vivo; conditions: mice, 50 to 200 mg/kg per os
From the text: (i) in the Jerne test the effect of the substance on local hemolysis in gel is observed.

[4] = tested on: antibodies formed against sheep erythrocytes; test: Hemagglutination test (HAT); type: in vivo; conditions: mice, 100 to 200 mg/kg per os
Experimental: (ii) in the hemagglutination test (HAT) in mice a stimulation of the antibodies formed against sheep erythrocytes is obtained at a dose of from 100 to 200 mg/kg per os. animal body weight;

[5] = tested on: skin grafts in H-2 histoincompatible mice; test: Skin transplantation (allograft) test; type: in vivo; conditions: 100 to 200 mg/kg per os
[6] = tested on: paralysis induced by experimentally induced nerve tissue damages; test: Experimental allergic encephalomyelitis (EAE) test; type: in vivo; conditions: rats, between 50 and 100 mg/kg/day
[7] = tested on: oxazolone skin hypersensitivity swelling; test: Oxazolone skin hypersensitivity reaction; type: in vivo; conditions: mice, doses of 70 to 200 mg/kg
[8] = tested on: Freund adjuvant arthritis swellings; test: Freund adjuvant arthritis latent period test; type: in vivo; conditions: rats, p.o., about 1 to about 10 mg/kg

| Compound | activity against Aspergillus Niger [1] | solubility in organic solvents ([2]; benzene, dichloromethane, chloroform, ethyl acetate, acetone, ethanol and methanol) | solubility in water ([2]; water) | stimulation of hemolytic plaque-forming cells (immunoglobulin M and G2a antibodies) [3] | stimulation of the antibodies formed against sheep erythrocytes [4] | prolongation in the period of survival of skin grafts [5] | incidence of paralysis [6] | inhibition of swelling [7] | inhibition of swellings [8] |
| --- | --- | --- | --- | --- | --- | --- | --- | --- | --- |
| C/C=C/C[C@@H](C)[C@@H](O)[C@H]1C(=O)N[C@@H]([C@@H](C)O)C(=O)N(C)CC(=O)N(C)[C@@H](CC(C)C)C(=O)N[C@@H](C(C)C)C(=O)N(C)[C@@H](CC(C)C)C(=O)N[C@@H](C)C(=O)N[C@H](C)C(=O)N(C)[C@@H](CC(C)C)C(=O)N(C)[C@@H](CC(C)C)C(=O)N(C)[C@@H](C(C)C)C(=O)N1C [Cyclosporin C, cyclosporin C] | active |  |  |  |  |  |  |  |  |
| dihydrocyclosporin C |  | easily soluble | difficulty soluble | significant stimulation | stimulation | significant prolongation | reduced significantly | significant and pronounced inhibition | inhibition of swellings |
